Test results reported in patent US20230248670A1, “APPLICATION OF PREPARATION FOR INHIBITING CAMK2G EXPRESSION IN PREPARATION OF MEDICINE FOR TREATING PSORIASIS” (priority 2022, published 2023).

How the values were obtained:
[1] = tested on: PMA-activated HL-60 cells; test: NETs protein release in PMA-activated HL-60 cells; type: cell-based
From the text: The existing literature discloses that although T cells producing IL-17 have long been the mainstream of psoriasis immunology research, neutrophils, as the largest number of cells in the innate immune system, have attracted much attention in the occurrence and development of psoriasis. Activated neutrophils produce enhanced respiratory burst, accompanied by the production of reactive oxygen species (ROS), ultimately leading to the development of NETosis. NETosis is a form of neutrophil death different from apoptosis and necrosis. NETosis is accompanied by the formation of NETs. NETs release proteases such as myeloperoxidase (MPO), neutrophil elastase (NE) and peptidyl arginine deiminase 4 (PAD4), which are involved in the hydrolysis and activation of inflammatory mediators and the formation of NETs of psoriasis autoantigens. HL60 is a bone marrow cell line with the potential to differentiate into neutrophils stimulated by dimethyl sulfoxide (DMSO). CAMK2γ is the member of CAMK family with the highest expression level and activity in HL-60 cells.
In the embodiment of the disclosure, in order to study whether CAMK2γ is involved in the formation of NETs in activated neutrophils, two kinds of CaMKII inhibitors, CaMKII-IN1 and KN93, are used.

[2] = tested on: IMQ-induced psoriasis mice; test: IMQ-induced psoriasis mouse model with subcutaneous injection of NE, SAL or ICI; type: in vivo; settings: for activation of p38 in IMQ-induced skin: SAL or ICI treatment, mouse skin; for IMQ-induced psoriasis-like phenotype (dorsal skin thickness, erythema, scaling) / proportion of IL-17A+ γδ T cells (γδ T-17 cells) in mouse skin: subcutaneous injection; for IMQ-induced psoriasis-like phenotype (dorsal skin thickness, erythema, scaling): IMQ-induced mice, vs control group; for proportion of IL-17A+ γδ T cells (γδ T-17 cells) in mouse skin: IMQ-induced mouse skin, flow cytometry
Experimental: In the embodiment of the disclosure, establishment steps of IMQ-induced Camk2g^-/- psoriasis mouse model include steps as follows. 7-week-old wild type mice (WT) (n = 5) or Camk2g^-/- mice (n = 5) are taken to shave back hair, and the exposed skin area is 2 centimeters (cm) × 2 cm, […] (mg) of IMQ cream or control agent Vaseline (VAS) are evenly applied to the exposed skin of mice for 4 consecutive days, psoriasis area severity index (PASI) score is performed every day, and the mice are sacrificed on the 5th day to take the skin, spleen and blood for testing.
In the embodiment of the disclosure, the skin tissue is fixed with 10% formalin, embedded in paraffin, cut into 4 micrometers (µm) sections for hematoxylin and eosin (H&E) staining.
In the embodiment of the disclosure, the inflammation scoring method of the mouse model is an objective scoring system developed on the basis of clinical PASI score. Scores of erythema, scaling and thickening ranged from 0 to 4:0: none; 1: mild, 2: moderate, 3: obvious, and 4: very significant. The degree of erythema is scored using a scoring scaling based on erythema intensity. A cumulative score (i.e., erythema + scaling + thickening) can be used as an indicator of the severity of inflammation (the cumulative score is in a range of 0-12).
In the embodiment of the disclosure, separation steps of skin immunocytes include steps as follows. the skin is fully chopped and then digested in digestive enzymes at 37° C. and 225 revolutions per minute (rpm) for 1.5 hours to thereby obtain an initial digestion solution. The digestive enzymes are formulated as follows: 1.2 grams (g) bovine serum albumin (BSA) (Biofoxx, 4240GR100), 0.12 g type I collagenase (Sigma, C0130-5G), 0.06 g type IV collagenase (Worthington, LS004189) and 0.06 g hyaluronidase (Sigma, H3506) -5G) are dissolved in 30 milliliters (mL) dulbecco’s modified eagle medium (DMEM) (HyClone, SH30022.01). 150 microliters (µL) of 1 microgram per milliliter (mg/mL) deoxyribonuclease (DNase) (Yuanye, S10073) is added in the initial digestion solution and the digestion is continued for 30 minutes to obtain a first cell suspension. After the digestion, the first cell suspension is filtered through a 70-µm filter. The filtered first cell suspension is centrifuged at 4° C. and 2000 rpm for 8 minutes, and first cell particles are collected after removing a first supernatant. The first cell particles are suspended in 6 mL of 40% lymphocyte isolation solution (5.4 mL Percoll (GE Healthcare, 17-0891-09) +520 µL Hank’s Solution (Beyotime, C0219) +44 µL 2×Hepes Buffer (Solarbio, H1080-100) +[…] phosphate-buffered saline (PBS)) of a centrifuge tube. Then, 6 mL of 80% lymphocyte isolation solution (5.4 mL Percoll+520 µL Hank’s Solution+44 µL 2×Hepes Buffer+1.491 mL PBS) is slowly added to the tube wall to obtain a first mixed solution, and the first mixed solution is clearly separated into two layers. The first mixed solution is centrifuged at 4° C. and 2000 rpm for 20 minutes, and the centrifugal lifting force is kept to a minimum. The liquid in the centrifuge tube after centrifugation can be divided into four layers. From top to bottom of the centrifuge tube, there are 40% lymphocyte isolation solution, lymphocytes, 80% lymphocyte isolation solution and cell fragments. Lymphocytes are carefully transferred into a new centrifuge tube and thoroughly washed with 10 mL PBS to obtain a second mixed solution. The second mixed solution is centrifuged at 4° C. and 2000 rpm for 8 minutes to obtain a second cell suspension, and second cell particles are collected after removing a second supernatant. Then, 1 µL of each cell membrane surface antibody is added to 50 µL of PBS, mixed with the second cell particles, and incubated at room temperature for 30 minutes in the dark. […]

[3] = tested on: Jurkat cells; test: Proinflammatory cytokine production in PMA/ionomycin co-stimulated Jurkat cells; type: cell-based, human; settings: co-stimulation with PMA and ionomycin
From the text: In the embodiments of the disclosure, “Phorbol 12-myristate 13-acetate (PMA)” and “ionomycin (Ion)” are used to activate Jurkat cells, and only activated Jurkat cells can highly express inflammatory factors.
In the embodiment of the disclosure, in order to in order to study how ADRB2 regulates the inflammatory response of γδ T cells, Jurkat cells (a kind of immortal human T lymphocytes) are stimulated with ADRB2 agonist SAL and antagonist ICI 118551 respectively.

[4] = tested on: Jurkat T cells; test: MAPK (p38, ERK, JNK) activation in PMA/ionomycin activated Jurkat T cells; type: cell-based, human; settings: Jurkat T cells activated by PMA/ionomycin for 2 hours, treatment for 4 hours
From the text: This is consistent with the existing literature that p38 phosphorylation promotes the proliferation of Th17 cells in autoimmune arthritis. P38 MAPK signaling pathway plays a role in the activation and differentiation of T cells in the peripheral blood immune system.

[5] = tested on: IMQ-induced psoriasis mice; test: IMQ-induced psoriasis mouse model with subcutaneous injection of NE, SAL or ICI; type: in vivo; settings: after injection of NE
[6] = tested on: γδ T cell deficient-mice (Tcrd^-/-); test: SAL subcutaneous injection in γδ T cell deficient-mice (Tcrd-/-); type: in vivo, mouse
From the text: SAL has no effect on the ability of αβ T cells to produce IL-17 (FIG. 50). Combined with the previous results, NE in the skin mainly derives from the skin sympathetic nerves and mediates the release of IL-17 from γδ T cells instead of αβ T cells through the NE-ADRB2 signaling pathway.

[7] = tested on: skin sympathetic nerves of IMQ-induced mice; test: Local skin sympathectomy by intradermal 6-OHDA before IMQ treatment; type: in vivo, mouse
Experimental: In an embodiment of the disclosure, in order to observe the effect of local sympathectomy on psoriasis mice, mice are injected with 6-OHDA intradermally before IMQ treatment (FIG. 25).

[8] = tested on: SH-SY5Y cells; test: 6-OHDA induced SH-SY5Y cell injury (qPCR, western blot); type: cell-based, human
From the text: In an embodiment of the disclosure, to further study whether CAMK2γ directly affects the expression of TH in sympathetic nerves, RNA interference (RNAi) method is used to knock down CAMK2G in human neuroblastoma cell (SH-SY5Y). SH-SY5Y is a poorly differentiated tumor cell with high similarity in morphology, physiology and biochemical function to dopaminergic neurons in real-time in vivo, and can constitutively express TH.

[9] = tested on: IMQ-induced mice; settings: intraperitoneal injection; cited from earlier work
[10] = intradermal 6-OHDA, sympathetic denervated skin

## Cc1c(Cl)cccc1S(=O)(=O)Nc1nc(NCCc2ccccc2)nc2c1CN(Cc1ccccc1)CC2 [CaMKII-IN1]
[1]
  release of MPO, elastase and PAD4: inhibits the release of MPO, elastase and PAD4

## CC(C)Cn1cnc2c(N)nc3ccccc3c21 [IMQ, imiquimod]
[2]; IMQ treatment
  p38 phosphorylation in mouse skin: p38 phosphorylation is activated by IMQ
  proportion of β2-AR+ T cells in mouse skin: increases a proportion of β2-AR+ T cells in mouse skin
[2]; IMQ treatment, western blot
  TH phosphorylation in mouse skin: significant upregulation of TH phosphorylation

## COc1ccc(S(=O)(=O)N(CCO)c2ccccc2CN(C)C/C=C/c2ccc(Cl)cc2)cc1 [KN93]
[1]
  release of MPO, elastase and PAD4: inhibits the release of MPO, elastase and PAD4

## Cc1ccc(OCC(O)C(C)NC(C)C)c2c1CCC2 (stereo not drawn) [ICI, ICI 118551]
[2]
  activation of p38 in IMQ-induced skin: showed inhibitory effect
  IMQ-induced psoriasis-like phenotype (dorsal skin thickness, erythema, scaling): psoriasis phenotype of mice injected with ICI is reduced
  proportion of IL-17A+ γδ T cells (γδ T-17 cells) in mouse skin: reduces a proportion of skin γδ T-17 cells
[3]
  production of T-cell proinflammatory cytokines IL-17A, TNF-α and IL-22: reduces the production of the T-cell proinflammatory cytokines
[4]
  activation of ERK and JNK: does not affect the activation
  p38 phosphorylation: inhibited

## NC[C@H](O)c1ccc(O)c(O)c1 [NE, norepinephrine]
[2]; NE administration, IMQ-induced Camk2g-/- mice
  IL-17A+ γδ T cells in CAMK2G-deleted mice: counteracts the decrease of IL-17A+ γδ T cells caused by CAMK2G deletion
[2]; NE injection, compared to IMQ-treated WT mice
  p38 phosphorylation in skin of Camk2g-/- mice: increases and restores p38 phosphorylation
[2]
  IMQ-induced psoriasis-like phenotype (dorsal skin thickness, erythema, scaling): aggravates the IMQ-induced psoriasis-like phenotype
  proportion of IL-17A+ γδ T cells (γδ T-17 cells) in mouse skin: increases a proportion of IL-17A+ γδ T cells in mouse skin
[5]
  difference in skin thickness between WT and Camk2g-/- mice: disappeared

## OCc1cc(C(O)CNCCCCCCOCCCCc2ccccc2)ccc1O (stereo not drawn) [SAL, salmeterol xinafoate]
[2]
  activation of p38 in IMQ-induced skin: enhanced the activation of p38
  IMQ-induced psoriasis-like phenotype (dorsal skin thickness, erythema, scaling): psoriasis phenotype of mice injected with SAL increased
  proportion of IL-17A+ γδ T cells (γδ T-17 cells) in mouse skin: promotes IL-17A production by γδ T cells
[6]
  ability of αβ T cells to produce IL-17: no effect
  psoriasis phenotype and inflammatory infiltration: promotion of psoriasis phenotype and inflammatory infiltration by SAL is counteracted by the lack of γδ T cells
[3]
  production of T-cell proinflammatory cytokines IL-17A, TNF-α and IL-22: increase the production of T-cell proinflammatory cytokines IL-17A, TNF-α and IL-22
[4]
  p38 phosphorylation: significantly increased

## NCCc1cc(O)c(O)cc1O [6-OHDA, 6-hydroxydopamine]
[7]; intradermal 6-OHDA before IMQ, immunofluorescence and western blot
  TH and pTH in skin: significant reduction of TH and pTH
[7]; intradermal 6-OHDA, skin sympathetic denervation
  IMQ-induced psoriasis-like phenotype: reduces IMQ-induced psoriasis-like phenotype in mice
[7]; [10]
  IL-17A+ γδ T cells in skin: IL-17A+ γδ T cells are reduced
  NE in skin: reduction of NE
[8]; qPCR
  CAMK2G expression: no significant effect on CAMK2G expression
  intracellular TH transcription level: decrease of intracellular TH transcription level
[8]; western blot
  phosphorylation levels of other members of the CaMKII family: may lead to increased phosphorylation levels of other members of the CaMKII family
  total protein level and pTH level of CAMK2γ: reduces the total protein level and pTH level of CAMK2γ
[9]
  IMQ-induced ear swelling: can reduce IMQ-induced ear swelling
  production of IL-17: does not affect the production of IL-17
